Test results published in patent US20240294533A1, “2-(HET)ARYL-SUBSTITUTED CONDENSED HETEROCYCLE DERIVATIVES AS PEST CONTROL AGENTS” (Bayer Aktiengesellschaft, priority 2021, published 2024).

Columns and labels:
Diabrotica balteata = Diabrotica balteata spray test; type: in vivo; conditions: Diabrotica balteata, 168 h; 100 g/ha (=32 μg/cavity), wheat grains, after 7 days; read-out: efficacy
Description: Diabrotica balteata—Spray Test Solvent: 78 parts by weight of acetone • • 1.5 parts by weight of dimethylformamide Emulsifier: alkylaryl polyglycol ether An appropriate active ingredient formulation is produced by dissolving 1 part by weight of active ingredient with the stated parts by weight of solvent and making the solution up to the desired concentration with water containing an emulsifier concentration of 1000 ppm. Further test concentrations are produced by diluting the formulation with emulsifier-containing water. Pre-swollen wheat grains (Triticum aestivum) are incubated in a multiwell plate filled with agar and a little water for one day (5 seed grains per cavity). The germinated wheat grains are sprayed with an active ingredient formulation of the desired concentration. Subsequently, each cavity is infected with 10-20 beetle larvae of Diabrotica balteata. After 7 days, efficacy in % is determined. 100% means that all wheat plants have grown as in the untreated, uninfected control; 0% means that no wheat plant has grown.

Meloidogyne incognita = Meloidogyne incognita test; type: in vivo; conditions: Meloidogyne incognita, 336 h, lettuce, gall formation after 14 days, read-out: nematicidal efficacy
Description: Meloidogyne incognita Test Solvent: 125.0 parts by weight of acetone An appropriate active ingredient formulation is produced by mixing 1 part by weight of active ingredient with the stated amount of solvent and diluting the concentrate to the desired concentration with water. Vessels are filled with sand, active ingredient solution, an egg/larvae suspension of the southern root-knot nematode (Meloidogyne incognita) and lettuce seeds. The lettuce seeds germinate and the plants develop. The galls develop on the roots. After 14 days, the nematicidal efficacy in % is determined by the formation of galls. 100% means that no galls were found; 0% means that the number of galls on the treated plants corresponds to the untreated control.

Nezara viridula = Nezara viridula spray test (plants sprayed, then infected); type: in vivo; conditions: 500 g/ha, barley plants, after 4 days
Description: Nezara viridula—Spray Test Solvent: 78.0 parts by weight of acetone • • 1.5 parts by weight of dimethylformamide Emulsifier: alkylaryl polyglycol ether An appropriate active ingredient formulation is produced by dissolving 1 part by weight of active ingredient with the stated parts by weight of solvent and making the solution up to the desired concentration with water containing an emulsifier concentration of 1000 ppm. Further test concentrations are produced by diluting the formulation with emulsifier-containing water. Barley plants (Hordeum vulgare) are sprayed with an active ingredient formulation of the desired concentration and are infected with larvae of the Southern green shield bug (Nezara viridula). After 4 days, efficacy in % is determined. 100% means that all of the shield bugs have been killed; 0% means that none of the shield bugs have been killed.

Spodoptera frugiperda [1] = test: Spodoptera frugiperda spray test (cotton leaves); type: in vivo; conditions: 4 ppm, after 7 days
Description: Spodoptera Frustiperda—Spray Test Solvent: 14 parts by weight of dimethylformamide Emulsifier: alkylaryl polyglycol ether An appropriate active ingredient formulation is produced by dissolving 1 part by weight of active ingredient with the stated parts by weight of solvent and making the solution up to the desired concentration with water containing an emulsifier concentration of 1000 ppm. Further test concentrations are produced by diluting the formulation with emulsifier-containing water. If the addition of ammonium salts or/and penetrants is required, these are each added in a concentration of 1000 ppm to the formulation solution. Cotton leaves (Gossypium hirsutum) are sprayed with an active ingredient formulation of the desired concentration and populated with caterpillars of the armyworm (Spodoptera frugiperda). After 7 days, the kill in % is determined. 100% means that all the caterpillars have been killed; 0% means that none of the caterpillars have been killed.

[2] = log P by HPLC on reversed-phase column (C18); type: physicochemical; conditions: LC-UV, neutral range, ammonium acetate/acetonitrile, read-out: log P (neutral)
Method: log P Values The log P values were determined according to EEC Directive 79/831 Annex V.A8 by HPLC (high-performance liquid chromatography) on a reversed-phase column (C18) using the following methods: ^[a] […] Calibration was carried out using straight-chain alkan-2-ones (having 3 to 16 carbon atoms) with known log P values. The values between successive alkanones are determined by linear regression.

Spodoptera frugiperda [3] = test: Spodoptera frugiperda spray test (maize leaf discs); type: in vivo; conditions: Spodoptera frugiperda, foliar, 168 h, after 7 days, read-out: efficacy
Description: Spodoptera Frusiperda—Spray Test Solvent: 78.0 parts by weight of acetone • • 1.5 parts by weight of dimethylformamide Emulsifier: alkylaryl polyglycol ether An appropriate active ingredient formulation is produced by dissolving 1 part by weight of active ingredient with the stated parts by weight of solvent and making the solution up to the desired concentration with water containing an emulsifier concentration of 1000 ppm. Further test concentrations are produced by diluting the formulation with emulsifier-containing water. Leaf discs of maize (Zea mays) are sprayed with an active ingredient formulation of the desired concentration and, after drying, populated with caterpillars of the fall armyworm (Spodoptera frugiperda). After 7 days, efficacy in % is determined. 100% means that all the caterpillars have been killed; 0% means that no caterpillar has been killed.

Myzus persicae = Myzus persicae spray test; type: in vivo; conditions: 20 ppm, bell pepper plants, after 6 days
Description: Myzus persicae—Spray Test Solvent: 14 parts by weight of dimethylformamide Emulsifier: alkylaryl polyglycol ether An appropriate active ingredient formulation is produced by dissolving 1 part by weight of active ingredient with the stated parts by weight of solvent and making the solution up to the desired concentration with water containing an emulsifier concentration of 1000 ppm. Further test concentrations are produced by diluting the formulation with emulsifier-containing water. If the addition of ammonium salts or/and penetrants is required, these are each added in a concentration of 1000 ppm to the formulation solution. Bell pepper plants (Capsicum annuum) severely infested with the green peach aphid (Myzus persicae) are treated by spraying with the active ingredient formulation in the desired concentration. After 6 days, the kill rate in % is determined. 100% means that all of the aphids have been killed; 0% means that none of the aphids have been killed.

Tetranychus urticae = Tetranychus urticae spray test, OP-resistant; type: in vivo; conditions: 500 g/ha, bean leaf discs, after 6 days
Description: Tetranychus urticae—Spray Test, OP-Resistant
Solvent: 78.0 parts by weight of acetone • • 1.5 parts by weight of dimethylformamide
Emulsifier: alkylaryl polyglycol ether
An appropriate active ingredient formulation is produced by dissolving 1 part by weight of active ingredient with the stated parts by weight of solvent and making the solution up to the desired concentration with water containing an emulsifier concentration of 1000 ppm. Further test concentrations are produced by diluting the formulation with emulsifier-containing water.
Discs of bean leaves (Phaseolus vulgaris) infested with all stages of the greenhouse red spider mite (Tetranychus urticae) are sprayed with an active ingredient formulation of the desired concentration.
After 6 days, efficacy in % is determined. 100% means that all the spider mites have been killed; 0% means that no spider mites have been killed.

SMILES	pest or weed control at 100 g/ha (Diabrotica balteata) [%]	pest or weed control at 20 ppm (Meloidogyne incognita) [%]	efficacy (Nezara viridula) [%]	efficacy (kill) (Spodoptera frugiperda [1]) [%]	chromatographic logP [2]	pest or weed control at 100 g/ha (Spodoptera frugiperda [3]) [%]	efficacy (kill rate) (Myzus persicae) [%]	efficacy (Tetranychus urticae) [%]
CCS(=O)(=O)c1ccc(-n2ncn(-c3ccc(F)cc3)c2=O)nc1-c1nc2cc(C(F)(F)C(F)(F)F)cnc2n1C [Example I-02, 2-[5-Ethylsulfonyl-6-[3-methyl-6-(1,1,2,2,2-pentafluoroethyl)imidazo[4,5-b]pyridin-2-yl]-2-pyridyl]-4-(4-fluorophenyl)-1,2,4-triazol-3-one]	100	100	100	100	3.53			
CCS(=O)(=O)c1ccc(-n2ncn(-c3ccc(C#N)cc3)c2=O)nc1-c1nc2cc(C(F)(F)C(F)(F)F)nnc2n1C [Example I-06]	100		100			100	95	
CCS(=O)(=O)c1ccc(-n2ncn(-c3ccc(C(=O)OC)cc3)c2=O)nc1-c1nc2cc(C(F)(F)C(F)(F)F)cnc2n1C [Example I-03]	100							90
